The test system of assay [1] is c-myc in Human AML MV4-11 cells. Briefly: Inhibition of cMYC expression in cancer cell lines (mRNA, real-time PCR). It is filed as cell-based. The settings on record: Homo sapiens, 3 h, cMYC mRNA normalized to Cyclophilin. The method, then:
MV4-11 cells (CRL-9591) were plated at a density of 2.5×10^4 cells per well in 96 well U-bottom plates and treated with increasing concentrations of test compound or DMSO (0.1%) in IMDM media containing 10% FBS and penicillin/streptomycin, and incubated for 3 h at 37° C. Triplicate wells were used for each concentration. Cells were pelleted by centrifugation and harvested using the mRNA Catcher PLUS kit according to manufacturer's instructions. The eluted mRNA isolated was then used in a one-step quantitative real-time PCR reaction, using components of the RNA UltraSense™ One-Step Kit (Life Technologies) together with Applied Biosystems TaqMan® primer-probes for cMYC and Cyclophilin. Real-time PCR plates were run on a ViiA™ 7 real time PCR machine (Applied Biosystems), data was analyzed, normalizing the Ct values for cMYC to an internal control, prior to determining the fold expression of each sample, relative to the control.
Background: In qPCR the cycle at which signal appears reflects the starting amount.

Assay [2] concerns the target T1, Brd4 bromodomain 1 (BRD4(1)) (Homo sapiens, UniProt O60885).
T1 construct: made in house; host or cells: E. coli BL21(DE3)
The experiment in a line: Inhibition of tetra-acetylated histone H4 binding to BET bromodomain (HTRF/FRET). The settings on record: His-tagged bromodomain 200 nM, tetra-acetylated histone H4 peptide, 2 h room temperature. As to the method:
Proteins were cloned and overexpressed with a N-terminal 6× His tag, then purified by nickel affinity followed by size exclusion chromatography. Briefly, E. coli BL21(DE3) cells were transformed with a recombinant expression vector encoding N-terminally Nickel affinity tagged bromodomains from Brd2, Brd3, Brd4. Cell cultures were incubated at 37° C. with shaking to the appropriate density and induced overnight with IPTG. The supernatant of lysed cells was loaded onto Ni-IDA column for purification. Eluted protein was pooled, concentrated and further purified by size exclusion chromatography. Fractions representing monomeric protein were pooled, concentrated, aliquoted, and frozen at −80° C. for use in subsequent experiments.
Binding of tetra-acetylated histone H4 and BET bromodomains was confirmed by a Homogenous Time Resolved Fluorescence Resonance Energy Transfer (HTRF®) method. N-terminally His-tagged bromodomains (200 nM) and biotinylated tetra-acetylated historic H4 peptide (25-50 nM, Millipore) were incubated in the presence of Europium Cryptate-labeled streptavidin (Cisbio Cat. #610SAKLB) and XL665-labeled monoclonal anti-His antibody (Cisbio Cat. #61HISXLB) in a white 96 well microtiter plate (Greiner). For inhibition assays, serially diluted test compound was added to these reactions in a 0.2% final concentration of DMSO. Duplicate wells were used for each concentration tested. Final buffer concentrations were 30 mM HEPES pH 7.4, 30 mM NaCl, 0.3 mM CHAPS, 20 mM phosphate pH 7.0, 320 mM KF, 0.08% BSA. After a 2 h incubation at room temperature, fluorescence was measured at 665 and 620 nm with a SynergyH4 plate reader (Biotek). The binding inhibitory activity was shown by a decrease in 665 nm relative to […] fluorescence. IC50 values were determined from a dose response curve.
On the technique in general: TR-FRET usually uses a lanthanide donor and a delayed reading to cut background.

In a further assay the test system is hIL-6 mRNA. The experiment in a line: Inhibition of hIL-6 mRNA transcription in LPS-stimulated U937 cells. It is filed as cell-based. The settings on record: Homo sapiens, U-937; PMA-differentiated U937 cells, 1 h pretreatment, LPS 1 ug/mL, 3 h; read-out: IL-6 activity. The method, then:
Human leukemic monocyte lymphoma U937 cells (CRL-1593.2) were plated at a density of 3.2×10^4 cells per well in a 96-well plate in 100 μL RPMI-1640 containing 10% FBS and penicillin/streptomycin, and differentiated into macrophages for 3 days in 60 ng/mL PMA ([…]) at 37° C. in 5% CO2 prior to the addition of compound. The cells were pretreated for 1 h with increasing concentrations of test compound in 0.1% DMSO prior to stimulation with 1 ug/mL lipopolysaccharide from Escherichia coli. Triplicate wells were used for each concentration. The cells were incubated at 37° C., 5% CO2 for 3 h before the cells were harvested. At time of harvest, media was removed and cells were rinsed in 200 μL PBS. Cells were harvested using the mRNA Catcher PLUS kit according to manufacturer's instructions. The eluted mRNA was then used in a one-step quantitative real-time PCR reaction using components of the RNA UltraSense™ One-Step Kit (Life Technologies) together with Applied Biosystems TaqMan® primer-probes for hIL-6 and Cyclophilin. Real-time PCR plates were run on a ViiA™ 7 real time PCR machine (Applied Biosystems), data was analyzed, normalizing the Ct values for hIL-6 to an internal control, prior to determining the fold expression of each sample, relative to the control.

A further assay relates to Human AML MV-4-11 cells. Briefly: Inhibition of cell proliferation in cancer cell lines (CellTiter Aqueous One). The format is cell-based. The settings on record: Homo sapiens; MV4-11 cells, 72 h. As to the method:
MV4-11 cells (CRL-9591) were plated at a density of 5×10^4 cells per well in 96 well flat bottom plates and treated with increasing concentrations of test compound or DMSO (0.1%) in IMDM media containing 10% FBS and penicillin/streptomycin. Triplicate wells were used for each concentration and a well containing only media was used as a control. Plates were incubated at 37° C., 5% CO2 for 72 h before adding 20 μL of the CellTiter Aqueous One Solution (Promega) to each well and incubated at 37° C., 5% CO2 for an additional 3-4 h. The absorbance was read at 490 nm in a spectrophotometer and the percentage of cell titer relative to DMSO-treated cells was calculated after correcting for background by subtracting the blank well's signal. IC50 values were calculated using the GraphPad Prism software.

The subject of another assay is hApoA-1 mRNA. The experiment in a line: Up-regulation of hApoA-1 mRNA transcription in Huh7 cells. It is filed as cell-based, Human. Particulars: EC170, Huh7 cells, 48 h. The method, then: In this example, hApoA-1 mRNA in tissue culture cells was quantitated to measure the transcriptional up-regulation of hApoA-1 when treated with a compound of the present disclosure.
Huh7 cells (2.5×10^5 per well) were plated in a 96-well plate using 100 μL DMEM per well, (Gibco DMEM supplemented with penicillin streptomycin and 10% FBS), 72 h before the addition of the compound. The cells are treated with increasing concentrations of the compound or DMSO (0.1%), and incubated at 37° C., 5% CO2 for 48 h. Spent media was removed from the Huh-7 cells and placed on ice for immediate use with the “LDH cytotoxicity assay Kit II” from Abcam. The cells remaining in the plate were rinsed with 100 μL PBS. Cells were harvested using the mRNA Catcher PLUS kit according to manufacturer's instructions. The eluted mRNA was then used in a one-step quantitative real-time PCR reaction, using components of the RNA UltraSense™ One-Step Kit (Life Technologies) together with Applied Biosystems TaqMan® primer-probes for hApoA-1 and Cyclophilin. Real-time PCR plates were run on a ViiA™ 7 real time PCR machine (Applied Biosystems), data was analyzed, normalizing the Ct values for hApoA-1 to an internal control, prior to determining the fold induction of each unknown sample, relative to the control.

The subject of a further assay is hIL-17 mRNA. Briefly: Inhibition of hIL-17 mRNA transcription in OKT3-stimulated peripheral blood mononuclear cells. Particulars: human PBMC, 1 h pretreatment, OKT3 antibody, 6 h; read-out: IL-17 activity. The format is cell-based. The method, then: Human peripheral blood mononuclear cells were plated (2.0×10^5 cells per well) in a 96-well plate in 45 μL. OpTimizer T Cell expansion media (Life Technologies) containing 20 ng/ml IL-2 and penicillin/streptomycin. The cells were treated with increasing concentrations of the test compound or DMSO (0.1%), and incubated at 37° C., 5% CO2 for 1 h before addition of 10× stock OKT3 antibody at 10 ug/ml in media. Triplicate wells were used for each concentration. Cells were incubated at 37° C., 5% CO2 for 6 h before the cells were harvested. At time of harvest, cells were pelleted by centrifugation at 800 rpm for 5 min. Cells were harvested using the mRNA Catcher PLUS kit according to manufacturer's instructions. The eluted mRNA was then used in a one-step quantitative real-time PCR reaction, using components of the RNA UltraSense™ One-Step Kit (Life Technologies) together with Applied Biosystems TaqMan® primer-probes for hIL-17 and Cyclophilin. Real-time PCR plates were run on a ViiA™ 7 real time PCR machine (Applied Biosystems), data was analyzed, normalizing the Ct values for hIL-17 to an internal control, prior to determining the fold induction of each unknown sample, relative to the control.

Where only a bound is given, the exact number is not on record here.

Turning to `Cc1noc(C)c1-c1c[nH]c(=O)c(Nc2ccccc2)c1` [Example 1, 5-(3,5-dimethylisoxazol-4-yl)-3-(phenylamino)pyridin-2(1H)-one], the IC50 lay within 3 to 30 µM in assay [1], 0.3 to 3 µM in assay [2], 0.3 to 3 µM in the assay on hIL-6 mRNA and 3 to 30 µM in the assay with Human AML MV-4-11 cells. Besides, the ApoA-1 activity result in the assay on hApoA-1 mRNA was “++ (EC170 value between 0.3 and 3 μM were deemed to be very active (++))”.
`Cc1noc(C)c1-c1c[nH]c(=O)c(NCc2ccccc2)c1` [Example 4, 3-(benzylamino)-5-(3,5-dimethylisoxazol-4-yl)pyridin-2(1H)-one]: the IC50 in assay [1] is 0.3 to 3 µM; in assay [2], at most 0.3 µM; in the assay with hIL-6 mRNA it was 0.3 to 3 µM; with Human AML MV-4-11 cells, 0.3 to 3 µM; in the assay with hIL-17 mRNA, 0.3 to 3 µM.
Take `Cc1noc(C)c1-c1c[nH]c(=O)c(NC(C)c2ccccn2)c1` (centres unmarked) [Example 20, 5-(3,5-dimethylisoxazol-4-yl)-3-((1-(pyridin-2-yl)ethyl)amino)pyridin-2(1H)-one]: the IC50 was 0.3 to 3 µM in assay [1]; at most 0.3 µM in assay [2]; 0.3 to 3 µM in the assay on hIL-6 mRNA; 0.3 to 3 µM with Human AML MV-4-11 cells; 0.3 to 3 µM in the assay on hIL-17 mRNA.
In the case of `Cc1noc(C)c1-c1c[nH]c(=O)c(Nc2cccnc2)c1` [Example 2, 5-(3,5-dimethylisoxazol-4-yl)-3-(pyridin-3-ylamino)pyridin-2(1H)-one], the IC50 (in assay [2]; in the assay with hIL-6 mRNA) was 3 to 30 µM in each case. The ApoA-1 activity entry in the assay with hApoA-1 mRNA is “+ (EC170 value between 3 and 30 μM were deemed to be active (+))”.
Take `Cc1noc(C)c1-c1c[nH]c(=O)c(NCc2ccccn2)c1` [Example 17, 5-(3,5-dimethylisoxazol-4-yl)-3-((pyridin-2-ylmethyl)amino)pyridin-2(1H)-one]: the IC50 in assay [1] is 0.3 to 3 µM; in assay [2] it was at most 0.3 µM; in the assay on hIL-6 mRNA it was 0.3 to 3 µM; in the assay on Human AML MV-4-11 cells it was 3 to 30 µM; in the assay with hIL-17 mRNA, 0.3 to 3 µM.

Source of the values: patent publication US10710992B2, “Substituted pyridinones as bromodomain inhibitors” (Zenith Epigenetics Ltd., priority 2014, dated 2020).
